Experimental data reported in patent US20240368163A1, “COMPOUNDS AND METHODS FOR MODULATING SPLICING” (REMIX THERAPEUTICS INC., priority 2021, published 2024).

Experiments:
HTT [1] = test: Splicing RT-qPCR assay, HTT mRNA canonical junction (CJ) and alternative junction (AJ); type: cell-based, human; conditions: Homo sapiens, read-out: HTT IC50 (decrease in CJ mRNA levels)
Outline: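 Splice switching is measured in A673 or K562 cells after 24 h compound exposure (maximum 10 uM, 3-fold steps). Canonical and alternative junction mRNA levels are quantified by RT-qPCR relative to housekeeper and DMSO.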

HTT [2] = test: HiBiT protein abundance assay, HTT; type: cell-based, human; conditions: Homo sapiens, K562, 24 h, modified K562 cells
Outline: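 K562 cells with endogenous HiBiT-tagged target were treated 24 h at 37 °C with compound (10-point 3-fold dilution, top 10 μM final, DMSO ≤0.25%). Lytic LgBiT luminescence was normalized to unmodified K562 (baseline) and DMSO-treated tagged cells; IC50 interpolated at 50% from four-parameter logistic fit.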

[3] = RT-qPCR panel, canonical junction mRNA, compound concentration having 50% response in CJ decrease
[4] = gene panel, CJ qPCR, protocol of Example 142

Row | Compound | IC50 (HTT [1]; [3]) | IC50 (HTT [2]; Table 13A) | IC50 (HTT [1]; [4]) | IC50 (HTT [2]; Table 13B)
1 | CN(c1ncc(-c2ccc(-n3ccnn3)c3[nH]ncc23)nn1)[C@@H]1C[C@H]2CCC[C@@H](C1)N2 [Compound 576] | < 100 nM | < 100 nM |  | 
2 | Cc1ncc(-c2ccc(-c3cnc(N(C)[C@@H]4C[C@H]5CCC[C@@H](C4)N5)nn3)c3scnc23)s1 [Compound 578] | < 100 nM | < 100 nM |  | 
3 | Cc1nc(-c2ccc(-c3cnc(N(C)[C@@H]4C[C@H]5CCC[C@@H](C4)N5)nn3)c3scnc23)cs1 [Compound 579] | 100 to 1000 nM | 100 to 1000 nM |  | 
4 | Cc1cc(-c2ccc(-c3cnc(N(C)[C@@H]4C[C@H]5CCC[C@@H](C4)N5)nn3)c3scnc23)sn1 [Compound 580] | < 100 nM | < 100 nM |  | 
5 | CC(C)(C)[C@H]1CN(c2ncc(-c3ccc(-n4cccn4)c4[nH]ncc34)nn2)CCN1 [Compound 581] | < 100 nM | < 100 nM |  | 
6 | COc1nc(-c2ccc(N(C)[C@@H]3C[C@H]4CC[C@@H](C3)N4)nn2)ccc1-c1cn[nH]c1 [Compound 906] |  |  | < 100 nM | < 100 nM
7 | CN(c1ccc(-c2ccc(-c3cn[nH]c3)cn2)nn1)[C@@H]1C[C@H]2CC[C@@H](C1)N2 [Compound 915] |  |  | 100 to 1000 nM | 100 to 1000 nM
8 | COc1nc(-c2ccc(OC3CC(C)(C)NC(C)(C)C3)nn2)ccc1-c1cn[nH]c1 [Compound 917] |  |  | 100 to 1000 nM | < 100 nM
9 | COc1nc(-c2ccc(OC3CC(C)(C)NC(C)(C)C3)nn2)ccc1-c1cnn(C)c1 [Compound 918] |  |  | 100 to 1000 nM | < 100 nM
10 | COc1nc(-c2ccc(N(C)C3CC(C)(C)NC(C)(C)C3)nn2)ccc1-c1cn[nH]c1 [Compound 919] |  |  | < 100 nM | < 100 nM
11 | COc1nc(-c2ccc(N(C)C3CC(C)(C)NC(C)(C)C3)nn2)ccc1-c1cnn(C)c1 [Compound 920] |  |  | 100 to 1000 nM | < 100 nM
12 | CN(c1ccc(-c2ccc(-c3cn[nH]c3)c(F)n2)nn1)[C@@H]1C[C@H]2CC[C@@H](C1)N2 [Compound 922] |  |  | < 100 nM | < 100 nM
13 | CN(c1ccc(-c2ccc(-c3cn[nH]c3)c(C#N)n2)nn1)[C@@H]1C[C@H]2CC[C@@H](C1)N2 [Compound 930] |  |  | < 100 nM | < 100 nM
14 | COc1nc(-c2ccc(N(C)[C@@H]3C[C@H]4CC[C@@H](C3)N4)nn2)cc(F)c1-c1cn[nH]c1 [Compound 931] |  |  | < 100 nM | < 100 nM
15 | CN(c1ccc(-c2ccc(-c3cn[nH]c3)c(OC3CC3)n2)nn1)[C@@H]1C[C@H]2CC[C@@H](C1)N2 [Compound 939] |  |  | < 100 nM | < 100 nM
16 | COc1cc(-c2ccc(-c3ccc(N(C)[C@@H]4C[C@H]5CC[C@@H](C4)N5)nn3)nc2OC)ncn1 [Compound 954] |  |  | 1000 to 10000 nM | 100 to 1000 nM
17 | CN(c1ccc(-c2ccc(-c3cn[nH]c3)c(OC(F)F)n2)nn1)[C@@H]1C[C@H]2CC[C@@H](C1)N2 [Compound 955] |  |  | < 100 nM | < 100 nM
18 | COc1nc(-c2ccc(N3CCC(NC(C)(C)C)C3)nn2)ccc1-c1cn[nH]c1 (stereo not drawn) [Compound 956] |  |  | < 100 nM | < 100 nM
19 | COc1nc(-c2ccc(N(C)[C@@H]3C[C@H]4CC[C@@H](C3)N4)nn2)ccc1-c1ccnc(O)c1 [Compound 961] |  |  | 100 to 1000 nM | 100 to 1000 nM
20 | COc1nc(-c2ccc(O[C@@H]3C[C@H]4CC[C@@H](C3)N4)nn2)ccc1-c1cnc(C)s1 [Compound 962] |  |  | 100 to 1000 nM | 100 to 1000 nM
21 | COc1nc(-c2ccc(OC3CC(C)(C)NC(C)(C)C3)nn2)cc(F)c1-c1cn[nH]c1 [Compound 965] |  |  | < 100 nM | < 100 nM
22 | CCOc1nc(-c2ccc(OC3CC(C)(C)NC(C)(C)C3)nn2)cc(F)c1-c1cn[nH]c1 [Compound 966] |  |  | < 100 nM | < 100 nM
23 | CCOc1nc(-c2ccc(OC3CC(C)(C)NC(C)(C)C3)nn2)ccc1-c1cn[nH]c1 [Compound 967] |  |  | < 100 nM | < 100 nM
24 | COc1nc(-c2ccc(OC3CC4CC(F)(F)C(C3)N4)nn2)cc(F)c1-c1cn[nH]c1 (stereo not drawn) [Compound 969] |  |  | 1000 to 10000 nM | 100 to 1000 nM
